Test results reported in a melting point compilation (Tetko et al.; mined from patent text by program, amines drawn as free bases though some values may be those of a salt).

First: CCOc1cc2cc(COC(C)=O)c(COC(C)=O)c(-c3ccnc(-n4ccc5ccccc5c4=O)c3)c2cc1OCC
Second: COc1ccc2c(c1)c(CC(=O)OC(OC(C)=O)c1ccccc1)c(C)n2C(=O)c1ccc(Cl)cc1 (stereo unspecified)
The melting point of the first is lower: 90 to 93 °C for the first, 93 to 94 °C for the second.

First: CC(=O)OCC1COc2c(ccc(F)c2F)N1 (stereo unspecified)
Second: CNCC(=O)NCC1Cc2cc(C)c3[nH]c(=O)ccc3c2O1 (stereo unspecified)
The melting point of the first is lower: 73 to 74 °C for the first, 188 to 191 °C for the second.

Compared with `Nc1ccccc1C(=O)c1ccc(Br)cc1`, `CCc1cc(N)c(C(=O)c2ccccc2)c(C)n1` is higher in melting point: 104 to 106 °C for the first, 200 to 202 °C for the second.

First: Fc1ccc2c(c1)nc(Cl)c1nnc(C(F)(F)F)n12
Second: Nc1nnc(C(F)(F)Oc2ccccc2)s1
The melting point of the first is lower: 135 to 138 °C for the first, 149 to 151 °C for the second.

First: CN(CC#Cc1cc(CN2CCOCC2)cc2c(=O)c(C(=O)NCc3ccc(Cl)cc3)cn(C)c12)CCO
Second: O=C(O)c1ccc(CN2C(=O)C3CCCC3=Nc3ccc(Cl)cc32)cc1 (stereo unspecified)
The melting point of the first is lower: 148 to 149 °C for the first, 251 to 255 °C for the second.

Compared with `COc1ccc(C(=O)NCCc2ccc(-c3ccc(O)cc3)cc2)c(OC)c1`, `CCOC(=O)C(Cc1ccc(OC)cc1)c1cc2cc(Br)ccc2s1` (stereo unspecified) is lower in melting point: 190 °C for the first, 62 to 65 °C for the second.

First: CC1C(=O)NC(C)(C)N1C(=O)CNC(=O)CN1CC(O)CC1=O (stereo unspecified)
Second: CC(CNC(=O)CN1C(=O)CCC1C)N1CCCCC1 (stereo unspecified)
The melting point of the first is higher: 218 to 220 °C for the first, 111 to 112 °C for the second.

First: COC(=O)CC[C@H](NC(=O)c1ccc(C(CO)CCCc2c(N)nc(N)nc2O)cc1)C(=O)OC (stereo partly specified)
Second: CCOC(=O)n1nc(-c2cccc(OC)c2)nc1-c1ccccc1CC
The melting point of the first is higher: 104 °C for the first, 80 to 82 °C for the second.

`COc1cccc2nc3[nH]c(=O)[nH]c3cc12` and `COc1cccc2c1[nH]c(=O)n1c(=O)[nH]nc21` cannot be ordered by melting point: over 300 °C for the first, 308 to 310 °C for the second.

Compared with `COc1ccc2cc(CBr)ccc2c1Br`, `O=C(O)c1c(NCc2ccccc2)nc2ccc(Br)cc2c1Cl` is higher in melting point: 92 to 94 °C for the first, 182 to 184 °C for the second.

Compared with `Oc1c(Cl)cc(NCCCCCCBr)cc1Cl`, `CCCCCCCCCCCCCCOc1ccc(C(=O)OC)cc1C(C)(C)C` is lower in melting point: 182 to 183 °C for the first, 44 to 45 °C for the second.

First: O=C1c2cccc(NC3CCCC3)c2C(=O)c2cccc(NC3CCCC3)c21
Second: O=C(CC1CCCC1)c1c(-c2ccc3cc(O)ccc3c2)oc2ccccc12
The melting point of the first is higher: 198 to 201 °C for the first, 189 to 190 °C for the second.

First: CNc1c(F)c(O)c2c(=O)c(C(=O)O)cn(-c3cc(N)c(F)cc3F)c2c1C
Second: CN1CCN(c2c(F)cc3c(=O)c(C(=O)O)cn(C4CSC4)c3c2F)CC1
The melting point of the first is higher: over 280 °C for the first, 204 to 206 °C for the second.

Compared with `COc1cc(/C=C/C(=O)Oc2ccc(NC(C)=O)cc2)ccc1OC(C)=O`, `COC(=O)COc1ccc(-c2coc3cc(OCC(=O)OC)ccc3c2=O)cc1` is lower in melting point: 246 to 250 °C for the first, 163 to 166 °C for the second.

First: O=C(O)Cc1ccc(CCNS(=O)(=O)c2ccc(F)cc2)cc1
Second: Cc1ccc(S(=O)(=O)NC(=O)C(c2cc3c(cc2Cl)OCO3)c2cn(C)c3cc(CO)ccc23)cc1 (stereo unspecified)
The melting point of the first is lower: 192 to 193 °C for the first, 207 to 209 °C for the second.

Compared with `Cn1cc(C(N)=O)c([N+](=O)[O-])n1`, `CCOC(=O)Cn1cccc(O)c1=O` is lower in melting point: 190 to 192 °C for the first, 141 to 151 °C for the second.

First: COC(=O)Nc1nc2cc(C(C3CC3)n3ccnc3)ccc2[nH]1 (stereo unspecified)
Second: CCC(CC)c1ccc(Cl)c2nc3n(c12)CCCCN3c1cc(C)cc2c1ncn2C
The melting point of the first is lower: 218 °C for the first, 259 to 260 °C for the second.

Compared with `CSc1nnc(SCC(=O)C23CC4CC(CC(C4)C2)C3)s1`, `CSc1nc(N)c([N+](=O)[O-])c(N2CCS(=O)CC2)n1` is higher in melting point: 134 to 135 °C for the first, 239 to 242 °C for the second.

First: NC1C(=O)N2C1SC1(CCOCC1)C2C(=O)O (stereo unspecified)
Second: CC(=O)OCC1OC(n2cnc(C#N)n2)C(OC(C)=O)C1OC(C)=O (stereo unspecified)
The melting point of the first is higher: 189 to 192 °C for the first, 96 to 97 °C for the second.

First: O=S(=O)(c1ccc(F)cc1)N1CCC(Nc2nc(OCC(F)(F)F)nc(-c3ccc(F)cc3)n2)CC1
Second: NS(=O)(=O)c1ccc(-c2cc(-c3nc(-c4ccc(Cl)c(Cl)c4)cc(C(F)(F)F)n3)ccn2)s1
The melting point of the first is lower: 183 to 185 °C for the first, 266 °C for the second.

First: COc1nc2c(cc1NC(=S)N1CCN(c3cc(C)cc(C)c3)CC1)CCCC2
Second: Cc1ccc(N2CCCN(c3cc[nH]c(=S)c3C#N)CC2)cc1[N+](=O)[O-]
The melting point of the first is lower: 200 to 201 °C for the first, 277 to 278 °C for the second.

First: Nc1ncnc2c1ncn2OCCCOCP(=O)(O)O
Second: O=C(O)CSCCCCOc1ccccc1
The melting point of the first is higher: 246 to 249 °C for the first, 48 to 50 °C for the second.

Compared with `C=C(Cn1cncn1)Cn1cncn1`, `CCNC(=O)Nc1nc2cc(-c3cnc(N(C)C)nc3)cc(C(=O)NCC)n2n1` is higher in melting point: 52 °C for the first, 328 to 334 °C for the second.

Compared with `CN(C(=O)c1ccc2nonc2c1)C1CCCOC1` (stereo unspecified), `CON(C)Cc1nc2cnc3ccccc3c2n1CC1CCOCC1` is higher in melting point: 134 to 135 °C for the first, 142 to 144 °C for the second.

Compared with `CNC(=O)C(C)(C)OCc1cc(-c2ccc(Cl)cc2)no1`, `Cc1ccnn1-c1ccc(NC(=O)c2ccc(Cl)cc2)cc1` is higher in melting point: 93 to 94 °C for the first, 189 to 191 °C for the second.

First: CCOC(=O)c1ccc(C=Cc2cc3ccccc3s2)s1
Second: CS(=O)c1nccc(-c2nc(=O)c3ccccc3s2)n1 (stereo unspecified)
The melting point of the first is lower: 116 to 117 °C for the first, 250 to 252 °C for the second.

First: CC(OC(=S)Nc1ccc(-c2ncn(-c3ccc(OC(F)(F)F)cc3)n2)cc1)c1ccc(C(F)(F)F)nc1 (stereo unspecified)
Second: CCOc1ccc(NS(=O)(=O)c2ccc(NN=CCCCN3C(=O)c4ccccc4C3=O)cc2)cc1
The melting point of the first is higher: 186 to 188 °C for the first, 156 to 158 °C for the second.

Compared with `Cc1sc2c(c1C)CNC(Cl)=N2`, `COC(=O)c1[nH]c2c(C)ccc(C)c2c1SC` is lower in melting point: 170 to 172 °C for the first, 82 to 85 °C for the second.

Compared with `COc1ccc(OCC(O)CNCCNc2c(C)c(=O)n(C)c(=O)n2C)cc1OC` (stereo unspecified), `CCCCCCN1N=C(c2ccc(OC)c(OC)c2)C2CC=CCC2C1=O` (stereo unspecified) is lower in melting point: 103 to 104 °C for the first, 74 to 75 °C for the second.

First: C=C1C(=O)NC(=O)N1c1ccc(Cl)cc1
Second: O=c1[nH]c2ccc(F)cc2c(=O)n1CCS
The melting point of the first is lower: 185 to 187 °C for the first, 240 to 242 °C for the second.

First: O=C(O)CCCCCNC(=O)OCC1c2ccccc2-c2ccccc21
Second: O=C(COc1ccc(-c2ccccc2)cc1Br)c1ccccc1
The melting point of the first is higher: 116 °C for the first, 93 to 95 °C for the second.

First: c1cc(Nc2ccc(-n3cccc3)cn2)cc(-n2ccnc2)c1
Second: O=C(O)c1cccc(Nc2nc(Oc3ccccc3)nc(Oc3ccc(Cl)cc3)n2)c1
The melting point of the first is lower: 152 to 156 °C for the first, 244 to 247 °C for the second.

First: Cc1c(C)c2c(c(C)c1N)CC(C)(CN1CCN(C(=O)CC(c3ccccc3)c3ccccc3)CC1)O2 (stereo unspecified)
Second: OC(CNc1ccc2ncnn2n1)CN1CCC(OC(c2ccccc2)c2ccccc2)CC1 (stereo unspecified)
The melting point of the first is lower: 77 to 78 °C for the first, 82 to 87 °C for the second.

First: O=S1(=O)c2cccc3cccc(c23)N1CCCN1CCC(c2ccc(Cl)cc2)CC1
Second: NS(=O)(=O)c1ccc(-c2noc(-c3cnn4c(C5CC5)cc(-c5ccc(Cl)cc5)nc34)n2)cc1
The melting point of the first is lower: 111 °C for the first, 260 °C for the second.

First: CCCCCCCCCCSC(=S)N1Cc2[nH]c3ccccc3c2CC1CO (stereo unspecified)
Second: CN1CCc2c(c3ccccc3n2CCC(N)=S)C1
The melting point of the first is lower: 115 to 118 °C for the first, 149 to 151 °C for the second.

First: O=C1NCCc2c(OCCCN3CCCCC3)cccc21
Second: CN1CCCC(C2=C(C#N)C(c3cccc(C#N)c3Br)c3c[nH]nc3N2)C1 (stereo unspecified)
The melting point of the first is lower: 112 to 114 °C for the first, 174 °C for the second.

Compared with `CCCCC(=O)NC(C#N)C(=O)OCC` (stereo unspecified), `CCCCn1c(=O)c2cc(C(=O)OCC)cn2c2cc(Cl)ccc21` is higher in melting point: 88 °C for the first, 172 to 174 °C for the second.

First: CC(C)n1nnnc1CCCn1ccc2cc(NC(=O)c3nc4ccc(Cl)cc4n3Cc3ccccc3)ccc21
Second: O=C(O)c1cc(=O)c2cccc(/C=C/c3ccc(OCCCCc4ccccc4)cc3)c2o1
The melting point of the first is higher: 190 to 191 °C for the first, 159 to 161 °C for the second.

Compared with `O=C(O)Cc1cn(Cc2ccc(OCc3csc(-c4ccccc4)n3)nc2)nc1-c1ccccc1`, `CCC1N=C(c2ccccc2Cl)c2cc(CCC(=O)O)sc2-n2c(C)nnc21` (stereo unspecified) is higher in melting point: 118 to 119 °C for the first, 218 to 220 °C for the second.

First: COc1ccc(NS(=O)(=O)C(F)(F)F)cc1CC1C(=O)c2cc(OCc3nc4cc(F)c(F)cc4s3)ccc2OC1(C)C (stereo unspecified)
Second: COc1ccc2c(c1)OC(CCO)C(=O)N2Cc1cccc([N+](=O)[O-])c1 (stereo unspecified)
The melting point of the first is higher: 198 to 200 °C for the first, 116 to 118 °C for the second.

Compared with `COCOc1cccc(F)c1C#N`, `O=[N+]([O-])c1cnccc1NCc1c(F)cccc1F` is higher in melting point: 53 to 55 °C for the first, 148 to 149 °C for the second.

`COC(=O)CN1CC(=O)NC1=NN=Cc1ccccc1` and `CCCN1C(=O)N2C(=NCC2c2ccccc2)c2c1ncn2C` (stereo unspecified) cannot be ordered by melting point: 149 to 153 °C for the first, 152 to 154 °C for the second.

First: CN1CC2Cc3ccc(Cl)cc3C(O)C2C1 (stereo unspecified)
Second: COC(C)CCC1(O)C2=NCCCN2c2cccc(Cl)c21 (stereo unspecified)
The melting point of the first is higher: 178 to 182 °C for the first, 164 to 165 °C for the second.

First: CN(C)CC1(C2(O)CCCCC2)Cc2cc3ccn(C)c3cc21 (stereo unspecified)
Second: CN(C)c1cc(C=O)cc(N(C)C)c1N1CCCCC1
The melting point of the first is higher: 148 to 150 °C for the first, 114 to 116 °C for the second.

Compared with `CC(C#N)(c1ccccc1)c1ccc(Cl)nn1` (stereo unspecified), `NS(=O)(=O)c1cc(S(N)(=O)=O)c(C(Cl)=C(Cl)Cl)cc1NCc1ccccc1` is higher in melting point: 116 to 118 °C for the first, 188 to 190 °C for the second.

First: CCCn1c(=O)n(C2CCN(C(=O)OC(C)(C)C)CC2)c2ccccc21
Second: CC(C)Cn1c(CNC(=O)OC(C)(C)C)c(-c2cccs2)c2cc(C(N)=O)ccc2c1=O
The melting point of the first is lower: 102 to 105 °C for the first, 248 to 250 °C for the second.

First: O=C(O)CN(CC(=O)O)c1cc(OCCCCCCCCCCCCOc2ccccc2)cc(OCCCCCCCCCCCCOc2ccccc2)c1
Second: CC[Si](C#Cc1c2cc3ccccc3cc2c(C#C[Si](CC)(CC)CC)c2cc3ccccc3cc12)(CC)CC
The melting point of the first is lower: 72 to 74 °C for the first, 210 °C for the second.

Compared with `COCc1ccc(C2(O)CCN(CC(O)c3ccc(O)cc3)CC2)cc1` (stereo unspecified), `COC(=O)CCN1CCCC2(Cc3ccc(Br)cc3)C(=O)N(c3cc(Cl)nc(Cl)c3)C(=O)N12` (stereo unspecified) is lower in melting point: 170 °C for the first, 157 °C for the second.

First: CCOC(=O)c1c(S(=O)(=O)Nc2c(F)cccc2F)nn2c(C)cc(C)nc12
Second: CC(C)c1nc(N(C)S(C)(=O)=O)nc(-c2ccc(F)cc2)c1/C=C/C#N
The melting point of the first is lower: 88 to 110 °C for the first, 134 °C for the second.

First: CCCS(=O)(=O)N(COC)C(=O)c1nc(OC)cc(OC)n1
Second: CC1COC(=O)N1c1cc(-c2ncnc(Nc3cccc(Cl)c3)n2)ccn1 (stereo unspecified)
The melting point of the first is lower: 59 to 62 °C for the first, 191 to 193 °C for the second.

Work on `Cc1cc(C(O)(C(F)(F)F)C(F)(F)F)cc(C)c1NCCC#N` yielded a melting point of 111 to 114 °C.
